# Key:
# Assay type in all cases: in vitro ADME
# [1] = target: T1, CYP3A4 (Homo sapiens, UniProt P08684); experiment: CYP screening, recombinant CYP3A4
# T1 construct: purchased Corning Life Sciences
# Description: DWP16001, M1, or M2 was incubated with 11 human cDNA-expressed CYP enzymes (1A1, 1A2, 2A6, 2B6, 2C8, 2C9, 2C19, 2D6, 2E1, 3A4, and 3A5) to identify the CYP enzymes involved in the metabolism of DWP16001. Reaction mixtures of 95 µL containing DWP16001 (final concentration: 5 µM), M1 or M2 (final concentration: 10 µM), and CYPs (final amount: 10 pmol) were prepared in 0.1 M potassium phosphate buffer (pH 7.4). The reaction was started by adding 5 µL of NADPH-generating system; the mixtures were incubated for 30 min at 37 °C in triplicate. Reactions were stopped by the addition of 400 µL of ice-cold ketoconazole (internal standard, 200 ng/mL) in ice-cold acetonitrile. Samples were centrifuged at 15,000× g for 8 min at 4 °C. Seventy-five microliter aliquots of the supernatants were diluted with 75 µL of deionized water and analyzed using an LC–MS/MS system.
# [2] = target: T2, CYP2C19 (Homo sapiens, UniProt P33261); experiment: Enzyme kinetics of metabolite formation in cDNA-expressed CYP2C19 supersomes
# T2 construct: purchased Corning Life Sciences
# Description: To calculate the enzyme kinetic parameters for the M1 and M2 formation from DWP16001, DWP16001 (final concentrations, 1–200 μM) was incubated with NADPH-generating system, pooled human liver microsomes (0.25 mg/mL), or human cDNA-expressed CYP3A4 or CYP2C19 supersomes (10 pmol) at 37 °C for 30 min in triplicate. Reactions were stopped by addition of 400 μL of ice-cold ketoconazole (200 ng/mL) in acetonitrile. Following vortex-mixing and centrifugation (15,000× g, 8 min, 4 °C), 75 μL aliquots of the supernatant were diluted with 75 µL of 30% acetonitrile; 5 μL aliquots were injected into an LC−MS/MS system.
# Apparent kinetic parameters (Km, Vmax and n) for the formation of M1, M2, and M3 from DWP16001 by human liver microsomes, CYP3A4, or CYP2C19 were calculated as follows: the unweighted formation rates of M1, M2, and M3 over a range of DWP16001 concentrations were fitted to the Hill equation model [V = Vmax × S^n/(Km^n + S^n)] or the single enzyme model [V = Vmax × S/(Km + S)] using Enzyme Kinetics software (version 1.1 SPSS Inc., Chicago, IL, USA). In the above equations, V means the reaction velocity of the formation of M1, M2, and M3 at given concentration [S] of DWP16001, Vmax means the maximum reaction velocity, n means the Hill constant, and Km means the DWP16001 concentration at which the reaction velocity is 50% of Vmax.
# [3] = target: T3, UGT1A4 (Homo sapiens, UniProt P22310); experiment: UGT screening, cDNA-expressed UGT1A4
# T3 construct: purchased Corning Life Sciences
# T3 sequence (P22310 29-534): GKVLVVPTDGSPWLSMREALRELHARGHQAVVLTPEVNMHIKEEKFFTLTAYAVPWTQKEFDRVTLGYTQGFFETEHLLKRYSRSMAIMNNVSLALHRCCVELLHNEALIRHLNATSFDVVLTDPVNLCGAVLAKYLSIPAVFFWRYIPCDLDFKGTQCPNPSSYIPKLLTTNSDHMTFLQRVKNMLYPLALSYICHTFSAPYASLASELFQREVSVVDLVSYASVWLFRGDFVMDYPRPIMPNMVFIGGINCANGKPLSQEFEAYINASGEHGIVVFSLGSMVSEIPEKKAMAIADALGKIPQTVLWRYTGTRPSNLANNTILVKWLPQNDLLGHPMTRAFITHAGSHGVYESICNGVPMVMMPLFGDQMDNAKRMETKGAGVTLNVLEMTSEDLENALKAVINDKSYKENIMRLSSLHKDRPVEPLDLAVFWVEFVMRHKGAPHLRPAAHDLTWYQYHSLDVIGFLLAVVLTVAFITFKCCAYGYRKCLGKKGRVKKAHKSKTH
# Description: To screen for UGT enzymes responsible for glucuronidation of DWP16001, 100 μL of reaction mixtures containing 13 human cDNA-expressed UGT enzymes (1A1, 1A3, 1A4, 1A6, 1A7, 1A8, 1A9, 1A10, 2B4, 2B7, 2B10, 2B15, and 2B17) at 0.1 mg protein/mL, 5 mM UDPGA, 0.025 mg/mL alamethicin, and 25 μM DWP16001 or M1 in 50 mM Tris buffer (pH 7.4) were incubated at 37 °C for 30 min in triplicate. Reactions were stopped by adding 100 μL of ketoconazole (internal standard, 200 ng/mL) in acetonitrile, followed by vortex-mixing and centrifugation (15,000× g, 8 min, 4 °C). The supernatant (75 μL) was diluted with equal volume of 30% acetonitrile and aliquots (5 μL) were injected into an LC-MS/MS system.
# [4] = CYP2C19 supersomes, kinetic model fitted
# T2 sequence (P33261 whole entry): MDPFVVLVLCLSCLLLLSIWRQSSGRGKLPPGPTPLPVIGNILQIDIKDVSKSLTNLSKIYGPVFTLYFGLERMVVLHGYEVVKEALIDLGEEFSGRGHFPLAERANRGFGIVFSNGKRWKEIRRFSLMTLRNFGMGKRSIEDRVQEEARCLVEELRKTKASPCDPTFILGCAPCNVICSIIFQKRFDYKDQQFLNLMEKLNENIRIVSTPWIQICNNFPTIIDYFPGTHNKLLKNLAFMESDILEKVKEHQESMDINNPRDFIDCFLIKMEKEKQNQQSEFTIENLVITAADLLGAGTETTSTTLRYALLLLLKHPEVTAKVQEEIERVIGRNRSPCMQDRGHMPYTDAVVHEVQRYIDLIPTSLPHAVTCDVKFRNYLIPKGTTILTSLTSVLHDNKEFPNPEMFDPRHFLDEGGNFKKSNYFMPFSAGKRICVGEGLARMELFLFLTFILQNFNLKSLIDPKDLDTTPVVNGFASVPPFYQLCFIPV
# T1 sequence (P08684 whole entry): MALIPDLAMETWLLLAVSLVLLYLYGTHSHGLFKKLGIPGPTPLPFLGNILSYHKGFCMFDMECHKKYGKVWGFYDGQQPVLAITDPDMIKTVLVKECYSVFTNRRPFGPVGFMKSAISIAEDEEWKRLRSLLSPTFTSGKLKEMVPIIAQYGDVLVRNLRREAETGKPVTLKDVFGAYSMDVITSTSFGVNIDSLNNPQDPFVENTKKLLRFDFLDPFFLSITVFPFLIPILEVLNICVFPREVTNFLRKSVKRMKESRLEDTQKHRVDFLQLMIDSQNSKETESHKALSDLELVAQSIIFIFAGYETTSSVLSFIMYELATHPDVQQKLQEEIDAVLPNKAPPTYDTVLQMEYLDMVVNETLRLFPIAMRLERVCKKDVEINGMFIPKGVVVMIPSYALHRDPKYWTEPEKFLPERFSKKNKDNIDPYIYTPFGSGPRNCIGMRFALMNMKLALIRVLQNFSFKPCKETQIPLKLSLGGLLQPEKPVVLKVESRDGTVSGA
smiles,measurement,setting,value
"OC[C@H]1O[C@@H](c2cc(Cc3ccc(C4CC4)cc3)c(Cl)c3c2CCO3)[C@H](O)[C@@H](O)[C@@H]1O [DWP16001, (2S,3R,4R,5S,6R)-2-(7-chloro-6-(4-cyclopropylbenzyl)-2,3-dihydrobenzofuran-4-yl)-6-(hydroxymethyl)tetrahydro-2H-pyran-3,4,5-triol]",Substrate of CYP3A4,[1],substrate
same,M3 formation from DWP16001 in enzyme kinetic analysis,[2]; CYP2C19,not detected
same,M1 Formation Mode,[2]; [4],Single enzyme
same,M2 Formation Mode,[2]; [4],Hill
same,Substrate of UGT1A4,[3],substrate

# — paper PMC7558535, “In Vitro Metabolism of DWP16001, a Novel Sodium-Glucose Cotransporter 2 Inhibitor, in Human and Animal Hepatocytes” (Pharmaceutics, 2020)
